This note sets out measurements from publication PMC5071164 (Biochimica et biophysica acta, 2016).

Test [1] has as its target T1, Farnesoid X receptor (FXR) ligand binding domain (Homo sapiens, UniProt Q96RI1).
T1 sequence (Q96RI1 203-486): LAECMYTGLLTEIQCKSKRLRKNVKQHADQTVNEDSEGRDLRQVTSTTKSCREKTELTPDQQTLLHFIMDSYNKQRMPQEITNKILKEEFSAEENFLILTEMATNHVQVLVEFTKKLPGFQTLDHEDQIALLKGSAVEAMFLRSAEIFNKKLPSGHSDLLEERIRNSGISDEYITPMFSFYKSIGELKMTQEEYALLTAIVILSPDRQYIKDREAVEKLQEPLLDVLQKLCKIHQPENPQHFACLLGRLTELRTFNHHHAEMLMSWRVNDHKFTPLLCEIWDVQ
Briefly: Intrinsic tryptophan fluorescence quenching titration.

Test [2] has as its target T1, Farnesoid X receptor (FXR) ligand binding domain. The description is as above. This is another data set of the same source.

Read-outs that look alike come from different tables or passages of the source.

For the molecule `CC(C)=CCc1c(O)cc(O)c2c1O[C@H](c1ccc(O)cc1)CC2=O` [8-PN, 8-prenylnaringenin], binding in test [1] was put at a Kd of 2200 ± 50 nM. In test [2], `COc1cc(O)c(CC=C(C)C)c(O)c1C(=O)/C=C/c1ccc(O)cc1` [XN, xanthohumol] showed a Kd of 2680 ± 110 nM. `COc1cc(O)c(CC=C(C)C)c2c1C(=O)CC(c1ccc(O)cc1)O2` (stereo not drawn) [IX, isoxanthohumol] came in with a Kd in test [1] of 5920 ± 250 nM.

As usually defined, the Kd is the free concentration of one partner at which half of the binding sites on the other are occupied at equilibrium, for simple one-to-one binding. A lower Kd goes with tighter binding.
